≈ marks a conversion by molar mass, not a printed value.
Columns and labels:
HIV-1 IIIB strain = assay: MT-4 HIV Wild Type Virus Infection Assay (IIIB Virus); assay type: cell-based; settings: Human immunodeficiency virus 1, IIIB, MT4, 120 h, MT-4 cells acutely infected with HIV-1 IIIB, 5 day incubation, Cell-titer glo
How it was run: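 MT-4 cells at 2×10^6 cells/ml in RPMI/10% FBS were acutely infected with HIV-1 IIIB for 1 h at 37° C, diluted 25× and added to serially diluted compounds. After 5 days at 37° C, viability read by CellTiter-Glo luminescence; EC50 from dose-response curves.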

[1] = molecular target: bovine intestinal alkaline phosphatase (Bos taurus (Bovine), UniProt P19111); assay: BiALP: conversion by bovine intestinal alkaline phosphatase; assay type: in vitro ADME; settings: 2 μM substrate, 100 ng/mL iALP, Tris pH 7.8, 37° C., 60 minutes; for [Intermediate A] or [Amprenavir]: parent formed
How it was run: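 LC-MS (positive mode) quantified analyte/internal-standard peak area ratios, referenced to 2 μM parent product. This followed a 60 min, 37° C reaction of 2 μM substrate in Tris buffer pH 7.8 (1 mM MgCl2, 1 mM ZnCl2) containing 100 ng/mL iALP or buffer alone, run in triplicate.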

[2] = Intestinal S9 Assay (human GI S9); assay type: in vitro ADME; settings: 1.0 mg/mL S9 protein; for half-life at 2 μM: human, TRIS pH 7.4, read-out: Human GI S9 T½
How it was run: (§1)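 Pooled dog or human intestinal S9 at 1.0 mg/mL protein in TRIS buffer pH 7.4 with ZnCl2 and MgCl2; compound at 2 μM, sampled 0–120 min and quenched. Remaining parent by LC-MS peak area ratio; half-life from first-order exponential decline fit.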

[3] = Intestinal S9 Assay (dog GI S9); assay type: in vitro ADME; settings: 1.0 mg/mL S9 protein; for Dog GI S9 [Intermediate A] / Dog GI S9 [Intermediate A] %: 2 μM, TRIS pH 7.4; for half-life at 2 μM: dog, TRIS pH 7.4, read-out: Dog GI S9 T½
How it was run: as §1

PBS Stability Assay = assay type: physicochemical; settings: phosphate buffered saline pH 7.4; for half-life at 2 μM: buffer, pH 7.4, 2 μM, read-out: PBS T½; for PBS T½: 2 μM
How it was run: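 Half-life derives from first-order exponential decline of % compound remaining, quantified by LC-MS analyte/internal-standard peak-area ratio. Compound (2 μM final) sat in pH 7.4 phosphate-buffered saline, with aliquots quenched into acidified acetonitrile containing labetalol from 0 to 120 min.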

Solubility in FaSSIF = settings: 23 °C, pH 6.5, fassif, thermodynamic from solid
How it was run: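 Concentration measured by HPLC-UV after solid compound was dosed at 5 mg/mL into pH 6.5 fasted-state simulated intestinal fluid containing taurocholate and lecithin (4:1 molar) and vortexed.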

Chain of bovine intestinal alkaline phosphatase (P19111 20-506): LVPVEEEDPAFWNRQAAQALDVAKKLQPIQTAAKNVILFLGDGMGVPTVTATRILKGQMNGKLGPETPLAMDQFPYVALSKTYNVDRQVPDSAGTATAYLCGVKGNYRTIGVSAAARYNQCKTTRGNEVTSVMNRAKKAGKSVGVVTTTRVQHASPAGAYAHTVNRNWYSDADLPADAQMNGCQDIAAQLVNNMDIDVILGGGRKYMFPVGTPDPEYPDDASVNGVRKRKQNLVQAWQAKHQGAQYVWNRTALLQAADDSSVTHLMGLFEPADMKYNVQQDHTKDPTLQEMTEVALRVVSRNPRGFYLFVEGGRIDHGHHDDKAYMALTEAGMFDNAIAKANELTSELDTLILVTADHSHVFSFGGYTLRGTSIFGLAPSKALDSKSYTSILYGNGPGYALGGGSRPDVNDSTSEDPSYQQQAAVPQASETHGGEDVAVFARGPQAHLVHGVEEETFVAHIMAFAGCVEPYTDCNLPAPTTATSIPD

SMILES	EC50 (HIV-1 IIIB strain) [nM]	[Compound] [1] [nM]	biALP Intermediate A or [Amprenavir] (% of total) [1]	[Intermediate A] or [Amprenavir] [1] [nM]	Human GI S9 [Intermediate A] ([2]; 2 μM, TRIS pH 7.4) [nM]	Human GI S9 [Intermediate A] % ([2]; 2 μM, TRIS pH 7.4) [%]	half-life at 2 μM [2] [h]	Dog GI S9 [Intermediate A] [3] [nM]	Dog GI S9 [Intermediate A] % [3] [%]	half-life at 2 μM [3] [h]	half-life at 2 μM (PBS Stability Assay) [h]	solubility at 2 h (Solubility in FaSSIF) [µg/mL]	PBS T½ (PBS Stability Assay) [h]	Human GI S9 T½ ([2]; 2 μM, TRIS pH 7.4) [h]
COC(=O)N[C@H](C(=O)N[C@@H](Cc1ccc(C#Cc2cnc(N3CC4CCC(C3)N4C3COC3)nc2)cc1)[C@H](CN(Cc1c(F)cc(-c2ccn(C(F)F)n2)cc1F)NC(=O)[C@@H](NC(=O)OC)C(C)(C)C(F)(F)F)OC(=O)CC(C)(C)c1c(CC(=O)N[C@@H](CCC(=O)O)C(=O)O)cccc1OP(=O)(O)O)C(C)(C)C(F)(F)F [Example 6]	20.7	1304.1	19 % of total	306.6	363.6	28.2	2.57	1236	93.8	0.393	10.9	3710 (≈ 2320 µM)	–	–
COC(=O)N[C@H](C(=O)N[C@@H](Cc1ccc(C#Cc2cnc(N3CC4CCC(C3)N4C3COC3)nc2)cc1)[C@H](CN(Cc1c(F)cc(-c2ccn(C(F)F)n2)cc1F)NC(=O)[C@@H](NC(=O)OC)C(C)(C)C(F)(F)F)OC(=O)CC(C)(C)c1c(CC(=O)NCC(=O)O)cccc1OP(=O)(O)O)C(C)(C)C(F)(F)F [Example 7]	23.2	1590.8	9.4 % of total	164.7	404.7	31.3	2.27	1224.2	91	0.457	8.72	5490 (≈ 3590 µM)	–	–
COC(=O)N[C@H](C(=O)N[C@@H](Cc1ccc(C#Cc2cnc(N3CC4CCC(C3)N4C3COC3)nc2)cc1)[C@H](CN(Cc1c(F)cc(-c2ccn(C(F)F)n2)cc1F)NC(=O)[C@@H](NC(=O)OC)C(C)(C)C(F)(F)F)OC(=O)CC(C)(C)c1c(CC(=O)N2CC[C@@H]2C(=O)O)cc(C)cc1OP(=O)(O)O)C(C)(C)C(F)(F)F [Example 9]	241	2004.9	1.8 % of total	36.5	–	–	8.93	–	–	1.14	10.4	2300 (≈ 1470 µM)	–	–
COC(=O)N[C@H](C(=O)N[C@@H](Cc1ccc(C#Cc2cnc(N3CC4CCC(C3)N4C3COC3)nc2)cc1)[C@H](CN(Cc1c(F)cc(-c2ccn(C(F)F)n2)cc1F)NC(=O)[C@@H](NC(=O)OC)C(C)(C)C(F)(F)F)OC(=O)CC(C)(C)c1c(CC(=O)N2C[C@@H](C(=O)O)C[C@H]2C(=O)O)cc(C)cc1OP(=O)(O)O)C(C)(C)C(F)(F)F [Example 10]	418	1868.8	4.9 % of total	95.5	86.8	7.3	9.22	228.1	18.4	4.24	9.92	3120 (≈ 1920 µM)	–	–
COC(=O)N[C@H](C(=O)N[C@@H](Cc1ccc(C#Cc2cnc(N3CC4CCC(C3)N4C3COC3)nc2)cc1)[C@H](CN(Cc1c(F)cc(-c2ccn(C(F)F)n2)cc1F)NC(=O)[C@@H](NC(=O)OC)C(C)(C)C(F)(F)F)OC(=O)CC(C)(C)c1c(CC(=O)Nc2cccc(C(=O)O)c2)cc(C)cc1OP(=O)(O)O)C(C)(C)C(F)(F)F [Example 14]	178	2276.6	2.2 % of total	50.3	58.5	3.9	10.1	210.8	13.8	6.69	5.58	< 1000	–	–
COC(=O)N[C@H](C(=O)N[C@@H](Cc1ccc(C#Cc2ccc(N3CC4CCC(C3)N4C3COC3)nc2)cc1)[C@H](CN(Cc1c(F)cc(-c2ccn(C(F)F)n2)cc1F)NC(=O)[C@@H](NC(=O)OC)C(C)(C)C(F)(F)F)OC(=O)CC(C)(C)c1c(CC(=O)Nc2cccc(C(=O)OO)c2)cc(C)cc1CP(=O)(O)O)C(C)(C)C(F)(F)F [Example 15]	162	2690.4	–	–	–	–	8.95	–	–	3.95	4.8	< 1000	–	–
COC(=O)N[C@H](C(=O)N[C@@H](Cc1ccc(C#Cc2cnc(N3CC4CCC(C3)N4C3COC3)nc2)cc1)[C@H](CN(Cc1c(F)cc(-c2ccn(C(F)F)n2)cc1F)NC(=O)[C@@H](NC(=O)OC)C(C)(C)C(F)(F)F)OC(=O)CC(C)(C)c1c(CC(=O)NCCS(=O)(=O)O)cc(C)cc1OP(=O)(O)O)C(C)(C)C(F)(F)F [Example 24]	130	1717.9	–	–	–	–	3.78	–	–	2.24	–	4660 (≈ 2920 µM)	13.2	–
COC(=O)N[C@H](C(=O)N[C@@H](Cc1ccc(C#Cc2cnc(N3CC4CCC(C3)N4C3COC3)nc2)cc1)[C@H](CN(Cc1c(F)cc(-c2ccn(C(F)F)n2)cc1F)NC(=O)[C@@H](NC(=O)OC)C(C)(C)C(F)(F)F)OC(=O)CC(C)(C)c1c(CC(=O)NCC(=O)NS(C)(=O)=O)cc(C)cc1OP(=O)(O)O)C(C)(C)C(F)(F)F [Example 27, (5S,10S,11S,14S)-8-(4-(1-(difluoromethyl)-1H-pyrazol-3-yl)-2,6-difluorobenzyl)-11-(4-((2-(8-(oxetan-3-yl)-3,8-diazabicyclo[3.2.1]octan-3-yl)pyrimidin-5-yl)ethynyl)benzyl)-3,6,13,16-tetraoxo-5,14-bis(1,1,1-trifluoro-2-methylpropan-2-yl)-2,17-dioxa-4,7,8,12,15-pentaazaoctadecan-10-yl 3-methyl-3-(4-methyl-2-(2-((2-(methylsulfonamido)-2-oxoethyl)amino)-2-oxoethyl)-6-(phosphonooxy)phenyl)butanoate]	173	2082.4	–	–	–	–	2.46	–	–	1.82	6.41	4420 (≈ 2730 µM)	–	–
COC(=O)N[C@H](C(=O)N[C@@H](Cc1ccc(C#Cc2cnc(N3CC4CCC(C3)N4C3COC3)nc2)cc1)[C@H](CN(Cc1c(F)cc(-c2ccn(C(F)F)n2)cc1F)NC(=O)[C@@H](NC(=O)OC)C(C)(C)C(F)(F)F)OC(=O)CC(C)(C)c1c(CC(=O)NC/C(N)=N/O)cc(C)cc1OP(=O)(O)O)C(C)(C)C(F)(F)F [Example 28, (5S,10S,11S,14S)-8-(4-(1-(difluoromethyl)-1H-pyrazol-3-yl)-2,6-difluorobenzyl)-11-(4-((2-(8-(oxetan-3-yl)-3,8-diazabicyclo[3.2.1]octan-3-yl)pyrimidin-5-yl)ethynyl)benzyl)-3,6,13,16-tetraoxo-5,14-bis(1,1,1-trifluoro-2-methylpropan-2-yl)-2,17-dioxa-4,7,8,12,15-pentaazaoctadecan-10-yl 3-(2-(2-(((Z)-2-amino-2-(hydroxyimino)ethyl)amino)-2-oxoethyl)-4-methyl-6-(phosphonooxy)phenyl)-3-methylbutanoate]	307	2478.7	–	–	–	–	–	–	–	11.4	–	15 (≈ 9.64 µM)	13.2	13.2

From patent US20250051375A1, “ANTI-HIV COMPOUNDS” (Gilead Sciences, Inc., priority 2023, published 2025)
